Assay results from patent publication US6562834B2, “Combination comprising camptothecin and a stilbene derivative for the treatment of cancer” (Aventis Pharma S. A., priority 2000, dated 2003).

Test system: colon adenocarcinoma C51
Test: Antitumor effect and safety of CPT-11, combretastatin and their combinations in mice bearing colon adenocarcinoma C51
Type: in vivo
Protocol: This efficacy may be quantified, for example by the log10 cells killed, which is determined by the following formula:
log10 cells killed=T−C(days)/3.32×Td
in which T−C represents the time taken for the cells to grow, which is the mean time in days for the tumors of the treated group (T) to reach a predetermined value (1 g for example) and the tumors of the control group (C) to reach the same value, and Td represents the time in days needed for the volume of the tumors in the control group to double. (T. H. Corbett et al., Cancer, 40, 2660.2680 (1977); F. M. Schabel et al., Cancer Drug Development, Part B, Methods in Cancer Research, 17, 3-51, New York, Academic Press Inc. (1979)). A product is considered to be active if log10 cells killed is greater than or equal to 0.7. A product is considered to be very active if the log10 cells killed is greater than 2.8.
The effect of the combination of CPT-11 and combretastatin was evaluated in mice bearing colon adenocarcinoma C51. CPT-11 was given orally on days two through five, […], at different dosage levels. Combretastatin was administered intravenously, two times a day, on days one to five. In the combination arms, three different dosages of CPT-11 were administered orally twice daily on days two through five and three different dosages of combretastatin were administered intravenously twice a day on days one through five.
Combretastatin, administered intravenously, and CPT-11, administered orally, were tested in several different schedules as reported in Table IV. When used as a single agent, combretastatin was administered twice a day for five consecutive days. When CPT-11 was administered alone, it was given once a day for four consecutive days.
When administered sequentially, two schedules were used. When combretastatin was given first, it was administered on day 1, followed by administration of CPT-11 once a day on days 2-5. When CPT-11 was the first compound given in the sequence, it was administered once a day on days 1-4, followed by combretastatin on day 5.

| Molecule | highest non-toxic dose (CPT-11 oral, single agent, mice) [mg/kg] | Log10 Cell Kill (single agent CPT-11 oral 400 mg/kg (highest non-toxic dose), Colon 51, tumor size 400-500 mg, Td = 2.4 d) | Colon 51 PR (partial response: mice with decrease in tumor volume of at least 50% / mice tested) (single agent combretastatin IV 116.5 mg/kg/injection (highest non-toxic dose)) | Log10 Cell Kill (single agent combretastatin IV 116.5 mg/kg/injection (highest non-toxic dose), 2 x/day days 1-5, Colon 51) |
| --- | --- | --- | --- | --- |
| CCc1c2c(nc3ccc(OC(=O)N4CCC(N5CCCCC5)CC4)cc13)-c1cc3c(c(=O)n1C2)COC(=O)[C@]3(O)CC [CPT-11, irinotecan] | 400 | 1.1 |  |  |
| Combretastatin |  |  | 5/5 | 1.3 |
